In PubChem BioAssay (NCI):
Values joined by “and” are separate entries in the source; they are usually repeats but may differ in a detail not shown here. Equal entries are not always repeated.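 48-hour exposure; five concentrations; linearly interpolated endpoints. Here, GI50 denotes the concentration required for 50% inhibition of growth. At the TGI there is no net growth.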

Experiments:
Assay in all cases: NCI anticancer screen, dose series, 48 h
LXFL 529 NSCLC = tested on: LXFL 529 NSCLC
OVCAR-3 ovarian = tested on: OVCAR-3 ovarian
MCF7 breast = tested on: MCF7 breast
U251 CNS = tested on: U251 CNS
MALME-3M melanoma = tested on: MALME-3M melanoma
NCI-H23 lung = tested on: NCI-H23 lung
NCI-H522 lung = tested on: NCI-H522 lung
DLD-1 colon = tested on: DLD-1 colon
SNB-19 CNS = tested on: SNB-19 CNS
NCI/ADR-RES ovarian = tested on: NCI/ADR-RES ovarian

`COC(=O)c1ccccc1OCc1cc(=O)oc2ccc(C)cc12` gave a TGI (LXFL 529 NSCLC) greater than 100 µM, a TGI (OVCAR-3 ovarian) greater than 100 µM and a TGI (MCF7 breast) greater than 100 µM. For the same molecule, the TGI (U251 CNS) was 35.4 µM, the TGI (MALME-3M melanoma) was greater than 100 µM and the TGI (NCI-H23 lung) was greater than 100 µM. For the same molecule, the TGI (NCI-H522 lung) was 48.6 µM, the TGI (DLD-1 colon) was greater than 100 µM and the TGI (SNB-19 CNS) was 38.9 µM. For the same molecule, the TGI (NCI/ADR-RES ovarian) was greater than 100 µM.
In the case of `CC1OC(OC2C[C@](O)(C(=O)CF)Cc3c(O)c4c(c(O)c32)C(=O)c2ccccc2C4=O)CC(N)C1O` (stereo not given in full), the TGI (LXFL 529 NSCLC) is reported as 1.27 µM, the TGI (OVCAR-3 ovarian) is reported as 1.49 µM and the TGI (MCF7 breast) is reported as 1.08 µM. For the same molecule, the TGI (U251 CNS) was 0.394 µM, the TGI (MALME-3M melanoma) was 0.191 µM and the TGI (NCI-H23 lung) was 0.169 µM. The TGI (NCI-H522 lung) was 0.104 µM, the TGI (DLD-1 colon) was 0.333 µM and the TGI (SNB-19 CNS) was 5.23 µM.
With `COc1cc(NC(C)CCCN)c2ncccc2c1` (stereo not given) the TGI (LXFL 529 NSCLC) was greater than 100 µM, the TGI (OVCAR-3 ovarian) was 84.2 µM and > 100 µM and the TGI (MCF7 breast) was 31.5 µM. For the same molecule, the GI50 (U251 CNS) was 39 µM and 86.1 µM, the TGI (U251 CNS) was greater than 100 µM and the GI50 (MALME-3M melanoma) was 19.3 µM and 44.4 µM. For the same molecule, the TGI (MALME-3M melanoma) was 35.7 µM and 60.9 µM, the TGI (NCI-H23 lung) was greater than 100 µM and the TGI (NCI-H522 lung) was greater than 100 µM. For the same molecule, the TGI (DLD-1 colon) was greater than 100 µM, the GI50 (SNB-19 CNS) was 39.8 µM and > 100 µM and the TGI (SNB-19 CNS) was greater than 100 µM. For the same molecule, the TGI (NCI/ADR-RES ovarian) was greater than 100 µM.
Molecule `CCOC1=C2C(=O)OC(=O)C2C2CCCCC2=C1` (stereo not given) has a TGI (LXFL 529 NSCLC) greater than 100 µM, a TGI (OVCAR-3 ovarian) greater than 100 µM and a TGI (U251 CNS) greater than 100 µM. For the same molecule, the TGI (MALME-3M melanoma) was greater than 100 µM, the TGI (NCI-H23 lung) was greater than 100 µM and the TGI (NCI-H522 lung) was greater than 100 µM. For the same molecule, the TGI (DLD-1 colon) was greater than 100 µM and the TGI (SNB-19 CNS) was greater than 100 µM.
For `Cc1cc2c(C)nn(Cc3ccccc3)c2c(C(N)=O)c1C`, the TGI (LXFL 529 NSCLC) was greater than 100 µM, the TGI (OVCAR-3 ovarian) was greater than 100 µM and the TGI (U251 CNS) was greater than 100 µM. For the same molecule, the TGI (MALME-3M melanoma) was greater than 100 µM, the TGI (NCI-H23 lung) was greater than 100 µM and the TGI (NCI-H522 lung) was greater than 100 µM. It also gave a TGI (DLD-1 colon) greater than 100 µM and a TGI (SNB-19 CNS) greater than 100 µM.
`COC1OC(CBr)C(OC(=O)c2ccccc2)C(O)C1Br` (stereo not given) showed a TGI (LXFL 529 NSCLC) greater than 100 µM, a TGI (OVCAR-3 ovarian) greater than 100 µM and a TGI (U251 CNS) greater than 100 µM. The TGI (MALME-3M melanoma) was greater than 100 µM, the TGI (NCI-H23 lung) was greater than 100 µM and the TGI (NCI-H522 lung) was greater than 100 µM. The TGI (DLD-1 colon) was greater than 100 µM and the TGI (SNB-19 CNS) was greater than 100 µM.
Work on `O=C1C2C3C=C4c5ccccc5N(c5ccccc5)C4(C2C(=O)N1c1ccc(Cl)cc1)[C@H]1C(=O)N(c2ccc(Cl)cc2)C(=O)[C@@H]31` (stereo not given in full) yielded a TGI (LXFL 529 NSCLC) greater than 100 µM, a TGI (OVCAR-3 ovarian) greater than 100 µM and a TGI (U251 CNS) greater than 100 µM. The TGI (MALME-3M melanoma) was greater than 100 µM, the TGI (NCI-H23 lung) was greater than 100 µM and the TGI (NCI-H522 lung) was greater than 100 µM. The TGI (DLD-1 colon) was greater than 100 µM and the TGI (SNB-19 CNS) was greater than 100 µM.
Work on `O=CN/C=C/c1cccc(O)c1` yielded a TGI (LXFL 529 NSCLC) greater than 100 µM, a TGI (OVCAR-3 ovarian) greater than 100 µM and a TGI (MCF7 breast) greater than 68.4 µM. It also gave a TGI (U251 CNS) greater than 83 µM, a TGI (MALME-3M melanoma) greater than 100 µM and a TGI (NCI-H23 lung) of 72.4 µM. The TGI (NCI-H522 lung) was 65.4 µM, the TGI (DLD-1 colon) was greater than 100 µM and the TGI (SNB-19 CNS) was greater than 100 µM. For the same molecule, the TGI (NCI/ADR-RES ovarian) was greater than 100 µM.
`C1COCCN1.C1COCCN1.NC1CCCCC1N.[Cl-].[Pt+2]` (stereo not given) showed a GI50 (LXFL 529 NSCLC) greater than 100 µM, a TGI (LXFL 529 NSCLC) greater than 100 µM and a GI50 (OVCAR-3 ovarian) greater than 100 µM. It also gave a TGI (OVCAR-3 ovarian) greater than 100 µM, a GI50 (U251 CNS) greater than 100 µM and a TGI (U251 CNS) greater than 100 µM. For the same molecule, the GI50 (MALME-3M melanoma) was 50.6 µM, the TGI (MALME-3M melanoma) was greater than 100 µM and the GI50 (NCI-H23 lung) was greater than 100 µM. The TGI (NCI-H23 lung) was greater than 100 µM, the GI50 (NCI-H522 lung) was 46.5 µM and the TGI (NCI-H522 lung) was greater than 100 µM. It also gave a GI50 (DLD-1 colon) greater than 100 µM, a TGI (DLD-1 colon) greater than 100 µM and a GI50 (SNB-19 CNS) greater than 100 µM. The TGI (SNB-19 CNS) was greater than 100 µM.
